In this assay the target is T1, ZAP-70 (Homo sapiens, UniProt P43403).
T1 sequence (P43403 1-619): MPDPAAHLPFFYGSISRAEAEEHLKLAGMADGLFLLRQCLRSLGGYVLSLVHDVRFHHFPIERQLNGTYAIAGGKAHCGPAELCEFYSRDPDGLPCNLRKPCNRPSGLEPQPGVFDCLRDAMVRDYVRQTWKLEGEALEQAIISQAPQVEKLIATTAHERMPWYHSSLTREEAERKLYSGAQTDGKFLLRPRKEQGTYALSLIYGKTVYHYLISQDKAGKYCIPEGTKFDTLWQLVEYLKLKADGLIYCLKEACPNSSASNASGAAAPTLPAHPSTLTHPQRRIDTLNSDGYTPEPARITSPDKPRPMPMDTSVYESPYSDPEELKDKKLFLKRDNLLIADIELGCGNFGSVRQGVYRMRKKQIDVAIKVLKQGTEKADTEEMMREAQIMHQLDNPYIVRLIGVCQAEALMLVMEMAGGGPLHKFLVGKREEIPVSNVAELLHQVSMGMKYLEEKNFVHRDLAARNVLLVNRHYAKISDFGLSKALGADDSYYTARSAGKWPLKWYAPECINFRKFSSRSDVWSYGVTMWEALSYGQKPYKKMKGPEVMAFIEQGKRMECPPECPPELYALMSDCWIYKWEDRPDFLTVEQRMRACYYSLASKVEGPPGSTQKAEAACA
Put plainly: DELFIA assay (ZAP-70 kinase, phosphorylation of biotinylated poly(glu,tyr)). The note with it: ZAP-70 DELFIA, class symbols; read-out: Activity (IC50 in vitro). Format: biochemical. The method, then: Before initiation of kinase reactions, compounds were pre-incubated with ZAP-70. Pre-incubation reactions contained 62.5 mM Mops pH 7.0, 12.5 mM MgCl2, 12.5% glycerol, 3.1 nM ZAP-70, 62.5 nM biotinylated poly(glu,Tyr), 0.1 mg/ml BSA, 6.25% DMSO and […] compound in a total volume of […]. After a 10 minute room temperature incubation, 10 ml of 5 mM ATP was added to start the reaction. Reactions were incubated at room temperature for 30 minutes then terminated by addition of 5 ml 500 mM EDTA. The amount of phosphate transferred to biotinylated poly(glu,tyr) was measured using the Dissociation Enhanced Lanthanide Fluorescence Immuno-assay (DELFIA) from Perkin Elmer according to manufacturers protocol. Briefly, biotinylated […] was captured on streptavidin coated plates, washed twice, then incubated with Europium labeled-anti-phosphotyrosine antibody. Free antibody was removed with six washes, Europium was dissociated from the antibody, and Europium fluorescence was measured at using an excitation wavelength of 340 nm and an emission wavelength of 615 nm.

The structures appear in SMILES notation.

Broadly, the IC50 is the concentration that gives 50% inhibition.

Take `O=C(c1cc(OCc2ccc(C(F)(F)F)cc2)nc2ccc(-c3ccc4c(c3)OCO4)cc12)N1CCC[C@H]1CN1CCCC1` [Compound 98]: the IC50 was below 1 µM.
As for `O=C(c1cc(OCc2ccc(Cl)cc2)nc2ccc(-c3ccc4c(c3)OCO4)cc12)N1CCC[C@H]1CN1CCCC1` [Compound 99], the figure is below 1 µM.
As for `Clc1cc(N2CCC[C@H]2CN2CCCC2)c2cc(-c3ccc4c(c3)OCO4)ccc2n1` [Compound 100], the IC50 is above 10 µM.
`Clc1cc(N2CCC[C@H]2CN2CCCC2)nc2ccc(-c3ccc4c(c3)OCO4)cc12` [Compound 101]: the IC50 is 1 to 10 µM.
As for `O=C(Nc1cc(C(=O)N2CCC[C@H]2CN2CCCC2)c2cc(-c3ccc4c(c3)OCO4)ccc2n1)c1ccc(C(F)(F)F)cc1` [Compound 102], the figure is 1 to 10 µM; as for `FC(F)(F)c1ccc(CNc2cc(N3CCC[C@H]3CN3CCCC3)c3cc(-c4ccc5c(c4)OCO5)ccc3n2)cc1` [Compound 103], 1 to 10 µM; as for `FC(F)(F)c1ccc(CNc2cc(N3CCC[C@H]3CN3CCCC3)nc3ccc(-c4ccc5c(c4)OCO5)cc23)cc1` [Compound 104], 1 to 10 µM.
With `O=C(c1cc(NCc2ccc(C(F)(F)F)cc2)nc2ccc(-c3ccc(Cl)c(Cl)c3)cc12)N1CCC[C@H]1CN1CCCC1` [Compound 105], the IC50 is below 1 µM.
For `N#Cc1cccc(-c2ccc3nc(NCc4ccc(C(F)(F)F)cc4)cc(C(=O)N4CCC[C@H]4CN4CCCC4)c3c2)c1` [Compound 106], the IC50 is below 1 µM.
As to `N#Cc1ccc(-c2ccc3nc(NCc4ccc(C(F)(F)F)cc4)cc(C(=O)N4CCC[C@H]4CN4CCCC4)c3c2)cc1` [Compound 107], the IC50 was below 1 µM.
Regarding `O=C(c1cc(NCc2ccc(C(F)(F)F)cc2)nc2ccc(-c3cc(F)cc(F)c3)cc12)N1CCC[C@H]1CN1CCCC1` [Compound 108], the IC50 was in the range of 1 to 10 µM.
With `O=C(c1cc(NCc2ccc(C(F)(F)F)cc2)nc2ccc(-c3ccc4c(c3)OCO4)cc12)N1CCCC1CCN1CCCC1` (centres unmarked) [Compound 109], the IC50 lay within 1 to 10 µM.
On to `O=C(c1cc(NCc2ccc(C(F)(F)F)cc2)nc2ccc(-c3ccc4c(c3)OCO4)cc12)N1CCC(CN2CCCC2)C1` (centres unmarked) [Compound 110], for which the IC50 is above 10 µM.
On to `O=C(NCc1ccc(C(F)(F)F)cc1)c1cc(NCc2ccc(C(F)(F)F)cc2)nc2ccc(-c3ccc4c(c3)OCO4)cc12` [Compound 111], for which the IC50 is above 10 µM.
For `O=C(c1cc(Cl)ncc1Cl)N1CCC[C@H]1CN1CCCC1` [Compound 112], the IC50 is above 10 µM.
Regarding `O=C(c1cc(Cl)nc(Cl)c1)N1CCC[C@H]1CN1CCCC1` [Compound 113], the IC50 is above 10 µM.
Regarding `O=C(c1cc(NCc2ccc(C(F)(F)F)cc2)ncc1Cl)N1CCC[C@H]1CN1CCCC1` [Compound 114], the IC50 is above 10 µM.
As for `O=C(c1cc(Cl)nc(/C=C/c2ccccc2)c1)N1CCC[C@H]1CN1CCCC1` [Compound 115], the IC50 is above 10 µM.
`O=C(c1cc(/C=C/c2ccccc2)nc(/C=C/c2ccccc2)c1)N1CCC[C@H]1CN1CCCC1` [Compound 116]: the IC50 was in the range of 1 to 10 µM.
For the compound `CC(Nc1cc(C(=O)N2CCC[C@H]2CN2CCCC2)c2cc(-c3ccc4c(c3)OCO4)ccc2n1)c1ccc(F)cc1` (some centres unmarked) [Compound 117], the IC50 was below 1 µM.
For `O=C(c1cc(NCc2ccc(C(F)(F)F)cc2)nc2cc(-c3ccc4c(c3)OCO4)ccc12)N1CCC[C@H]1CN1CCCC1` [Compound 118], the IC50 was in the range of 1 to 10 µM.
In the case of `N#Cc1cccc(-c2ccc3c(C(=O)N4CCC[C@H]4CN4CCCC4)cc(NCc4ccc(C(F)(F)F)cc4)nc3c2)c1` [Compound 119], the IC50 was above 10 µM.
As for `N#Cc1ccc(-c2ccc3c(C(=O)N4CCC[C@H]4CN4CCCC4)cc(NCc4ccc(C(F)(F)F)cc4)nc3c2)cc1` [Compound 120], the IC50 lay within 1 to 10 µM.
As for `O=C(c1cc(NCc2ccc(C(F)(F)F)cc2)nc2cc(-c3cc(F)cc(F)c3)ccc12)N1CCC[C@H]1CN1CCCC1` [Compound 121], the figure is 1 to 10 µM; as for `O=C(c1cc(NCc2ccc(C(F)(F)F)cc2)nc2cc(-c3ccc(Cl)c(Cl)c3)ccc12)N1CCC[C@H]1CN1CCCC1` [Compound 122], 1 to 10 µM; as for `CS(=O)(=O)c1ccc(-c2ccc3c(C(=O)N4CCC[C@H]4CN4CCCC4)cc(NCc4ccc(C(F)(F)F)cc4)nc3c2)cc1` [Compound 123], 1 to 10 µM.
The value for `Cc1c(NCc2ccc(C(F)(F)F)cc2)nc2ccc(-c3ccc4c(c3)OCO4)cc2c1C(=O)N1CCC[C@H]1CN1CCCC1` [Compound 124] was 1 to 10 µM; that for `O=C(c1cc(NCc2ccc(C(F)(F)F)cc2)nc2ccc(-c3ccc4c(c3)OC(F)(F)C(F)(F)O4)cc12)N1CCC[C@H]1CN1CCCC1` [Compound 125] was below 1 µM.
For `O=C(c1cc(NCc2ccc(C(F)(F)F)cc2)nc2ccc(-c3ccc4c(c3)OCCO4)cc12)N1CCC[C@H]1CN1CCCC1` [Compound 126], the IC50 is below 1 µM.
For the compound `O=C(c1cc(NCc2ccc(C(F)(F)F)cc2)nc2ccc(-c3ccc4cc[nH]c4c3)cc12)N1CCC[C@H]1CN1CCCC1` [Compound 127], the IC50 is below 1 µM.
In the case of `O=C(c1cc2cc(-c3ccc4c(c3)OCO4)ccc2nc1NCc1ccc(C(F)(F)F)cc1)N1CCCC1CN1CCCC1` (centres unmarked) [Compound 128], the IC50 was above 10 µM.
Take `CN(Cc1ccccc1)c1cc(C(=O)N2CCC[C@H]2CN2CCCC2)c2cc(Oc3ccccc3)ccc2n1` [Compound 129]: the IC50 lay in the range of 1 to 10 µM.
The value for `O=C(c1cc(/C=C/c2ccccc2)nc2ccc(-c3ccc4c(c3)OCO4)cc12)N1CCC[C@H]1CN1CCCC1` [Compound 130] was 1 to 10 µM; that for `O=C(c1cc(/C=C/c2ccc(F)cc2)nc2ccc(-c3ccc4c(c3)OCO4)cc12)N1CCC[C@H]1CN1CCCC1` [Compound 131] was 1 to 10 µM.
In the case of `O=C(c1cc(/C=C/c2ccc(Cl)cc2)nc2ccc(-c3ccc4c(c3)OCO4)cc12)N1CCC[C@H]1CN1CCCC1` [Compound 132], the IC50 lay within 1 to 10 µM.
As for `O=C(c1cc(/C=C/c2ccc(C(F)(F)F)cc2)nc2ccc(-c3ccc4c(c3)OCO4)cc12)N1CCC[C@H]1CN1CCCC1` [Compound 133], the IC50 is 1 to 10 µM.
The value for `O=C(c1cc(CCc2ccccc2)nc2ccc(-c3ccc4c(c3)OCO4)cc12)N1CCC[C@H]1CN1CCCC1` [Compound 134] was 1 to 10 µM; that for `O=C(c1cc(CCc2ccc(F)cc2)nc2ccc(-c3ccc4c(c3)OCO4)cc12)N1CCC[C@H]1CN1CCCC1` [Compound 135] was 1 to 10 µM; that for `O=C(c1cc(CCc2ccc(Cl)cc2)nc2ccc(-c3ccc4c(c3)OCO4)cc12)N1CCC[C@H]1CN1CCCC1` [Compound 136] was 1 to 10 µM.
Turning to `O=C(c1cc(CCc2ccc(C(F)(F)F)cc2)nc2ccc(-c3ccc4c(c3)OCO4)cc12)N1CCC[C@H]1CN1CCCC1` [Compound 137], the IC50 was in the range of 1 to 10 µM.
As to `NC(=O)c1cc(C(=O)N2CCC[C@H]2CN2CCCC2)c2cc(-c3ccc4c(c3)OCO4)ccc2n1` [Compound 138], the IC50 is above 10 µM.
As to `O=C(NCc1ccc(C(F)(F)F)cc1)c1cc(C(=O)N2CCC[C@H]2CN2CCCC2)c2cc(-c3ccc4c(c3)OCO4)ccc2n1` [Compound 139], the IC50 fell in the range of 1 to 10 µM.
For `O=C(NCc1ccc(Cl)cc1)c1cc(C(=O)N2CCC[C@H]2CN2CCCC2)c2cc(-c3ccc4c(c3)OCO4)ccc2n1` [Compound 140], the IC50 was below 1 µM.
Regarding `O=C(NCCc1ccccc1)c1cc(C(=O)N2CCC[C@H]2CN2CCCC2)c2cc(-c3ccc4c(c3)OCO4)ccc2n1` [Compound 141], the half-maximal inhibitory concentration (IC50) was 1 to 10 µM.
For `CC(CNC(=O)c1cc(C(=O)N2CCC[C@H]2CN2CCCC2)c2cc(-c3ccc4c(c3)OCO4)ccc2n1)c1ccccc1` (some centres unmarked) [Compound 142], the concentration for half-maximal inhibition (IC50) fell in the range of 1 to 10 µM.
The value for `CCN(Cc1ccc(C)cc1)C(=O)c1cc(C(=O)N2CCC[C@H]2CN2CCCC2)c2cc(-c3ccc4c(c3)OCO4)ccc2n1` [Compound 143] was 1 to 10 µM; that for `O=C(Nc1ccccc1)c1cc(C(=O)N2CCC[C@H]2CN2CCCC2)c2cc(-c3ccc4c(c3)OCO4)ccc2n1` [Compound 144] was 1 to 10 µM; that for `O=C(c1cc(NCc2ccc(C(F)(F)F)cc2)nc2ccc(-c3ccc4c(c3)OCO4)cc12)N1CC2CC2[C@H]1CN1CCCC1` (some centres unmarked) [Compound 145] was 1 to 10 µM.
As for `O=C(c1cc(NCc2ccc(Cl)cc2)nc2ccc(-c3ccc4c(c3)OCO4)cc12)N1CC2CC2[C@H]1CN1CCCC1` (some centres unmarked) [Compound 146], the figure is 1 to 10 µM.
On to `C[C@H]1CCN(C(=O)c2cc(NCc3ccc(C(F)(F)F)cc3)nc3ccc(-c4ccc5c(c4)OCO5)cc23)[C@@H]1CN1CCCC1` [Compound 147], for which the IC50 lay in the range of 1 to 10 µM.

The values are drawn from patent US20080119515A1, “Heterocyclic Kinase Inhibitors: Methods of Use and Synthesis” (priority 2003, published 2008).
